Reference: publication PMC9609429 (Pharmaceuticals, 2022)

Tests used:
β1-adrenergic receptor = biological target: T1, β1-adrenergic receptor (Rattus norvegicus, UniProt P18090); test: β1-adrenoceptor radioligand binding assay ([3H]-CGP-12177, rat cerebral cortex)
T1 construct: from tissue; host or cells: rat cerebral cortex homogenate
Method: The α1-, α2-, and β1-adrenoceptor radioligand binding assay was carried out on the rat cerebral cortex. […] The brains were homogenized using ULTRA-TURRAX homogenizer in 10 mL of an ice-cold 50 mM Tris–HCl buffer (pH 7.6). Homogenates were centrifuged at 20,000× g for 20 min (0–4 °C). Next, the cell pellet was resuspended in the Tris–HCl buffer and centrifuged again. Radioligand binding assays were performed in plates (MultiScreen/Millipore). The final incubation mixture (volume 300 μL) consisted of 240 μL of the tissue suspension, 30 μL of radioligand solution, and 30 μL of the buffer containing 7–8 concentrations of the tested compound. […] The incubation was terminated by rapid filtration through Whatman GF/C filters using a vacuum manifold (Millipore). The filters were then washed twice with the assay buffer and placed in scintillation vials with a liquid scintillation cocktail. […] All the assays were made in duplicates and the inhibitory constants (Ki) were estimated.

[1] = system: adrenaline-induced arrhythmia in rats; test: Prophylactic antiarrhythmic activity in adrenaline-induced arrhythmia; assay type: in vivo, rat
Method: The experiment was carried out according to the method described by Szekeres and Papp. Normotensive rats were anesthetized with thiopental (75 mg/kg ip). Adrenaline was administered at the dose of 20 µg/kg to induce heart rhythm disturbances. The studied compound was injected intraperitoneally 45 min before the arrhythmogen. The electrocardiogram (ECG) was recorded during the first 2 min and in the 5th, 10th, and 15th min after the adrenaline injection. The criterion of prophylactic antiarrhythmic activity was the lack of extrasystoles and inhibition of cardiac arrhythmia in comparison with the control group. The ED50 (a dose producing a 50% inhibition of ventricular contractions) was determined by computer log-probit analysis according to Litchfield and Wilcoxon.

normotensive rats = test: Effect on a normal electrocardiogram in rats; assay type: in vivo; parameters: Rate: unit not given here; conditions: rat; for PR / QRS: in ms (unit assumed)
Method: To verify the influence of the tested compound on the normal electrocardiogram (ECG), the experiment was performed. Aspel ASCARD apparatus (standard II lead, with tape speed 50 mm/s and voltage calibration 1 mV = 1 cm) was used for ECG measurements. Normotensive rats were anesthetized with thiopental (75 mg/kg ip). The ECG was recorded prior and 5, 10, 15, 20, 30, 40, 50, 60, and 80 min after intraperitoneal administration of the tested compound. The influence on PQ, QTc interval, QRS complex, and heart rate was evaluated. Bazzett’s formula, QTc = QT/√RR, was used to calculate QTc.

5-HT1A receptors = system: 5-HT1A receptors; parameters: method as in PMID 34451841; conditions: previous studies; cited from earlier work

T1 sequence (P18090 whole entry): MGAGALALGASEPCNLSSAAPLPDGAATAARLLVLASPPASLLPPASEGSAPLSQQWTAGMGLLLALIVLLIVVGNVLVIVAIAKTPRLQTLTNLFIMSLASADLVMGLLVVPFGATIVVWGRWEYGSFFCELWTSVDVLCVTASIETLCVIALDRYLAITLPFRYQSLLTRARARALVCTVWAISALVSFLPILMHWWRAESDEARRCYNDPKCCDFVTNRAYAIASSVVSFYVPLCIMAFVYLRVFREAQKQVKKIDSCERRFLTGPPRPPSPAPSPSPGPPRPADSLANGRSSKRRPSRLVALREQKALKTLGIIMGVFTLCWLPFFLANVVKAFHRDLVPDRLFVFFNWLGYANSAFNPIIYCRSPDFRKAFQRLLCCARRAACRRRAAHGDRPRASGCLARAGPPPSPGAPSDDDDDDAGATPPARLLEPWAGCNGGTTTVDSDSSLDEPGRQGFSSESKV

**Q.** What does the source list for `CCC(CN1CCN(c2ccccc2OC)CC1)NCCCOc1c(C)cccc1C.Cl.Cl` (stereo not shown) [HBK-10, N-(3-(2,6-dimethylphenoxy)propyl)-1-(4-(2-methoxyphenyl)piperazin-1-yl)butan-2-amine dihydrochloride]?
**A.** Ki (β1-adrenergic receptor; rat cortex tissue, [3H]-CGP-12177, read-out: Adrenergic Receptors—pKi β1 (converted)): 3.02 µM; affinity towards β1-adrenoceptor lower compared with the α1 receptor (β1-adrenergic receptor; rat cortex, α1 vs β1): > 1000 fold; ED50 lower than for carvedilol ([1]; HBK-10 ip vs carvedilol iv): ~3 fold; Extrasystoles (%) ([1]; rat, 0.0625 mg/kg ip 45 min before adrenaline 20 μg/kg iv): 83.3%; Extrasystoles (%) ([1]; rat, 0.125 mg/kg ip 45 min before adrenaline 20 μg/kg iv): 50%; Extrasystoles (%) ([1]; rat, 0.25 mg/kg ip 45 min before adrenaline 20 μg/kg iv): 16.7%; ED50 ([1]; rat, ip 45 min before adrenaline 20 μg/kg iv, read-out: ED50 (extrasystoles caused by adrenaline)): 0.125 mg/kg; dose influencing normal ECG relative to median effective dose in adrenaline-induced arrhythmia model (normotensive rats): 160 fold; effect on PR (normotensive rats; 10 mg/kg): no effect; effect on QRS (normotensive rats; 10 mg/kg): no effect; effect on QTc (normotensive rats; 10 mg/kg): no effect; effect on heart rate (normotensive rats; 10 mg/kg): no effect; QTc (normotensive rats; 10 mg/kg ip, 0 min): 215.3 ± 19.3; Rate (normotensive rats; 10 mg/kg ip, 0 min): 357.1 ± 22.6; PR (normotensive rats; 10 mg/kg ip, 0 min): 53.9 ± 2.8; QRS (normotensive rats; 10 mg/kg ip, 0 min): 22.6 ± 1.8; QTc (normotensive rats; 10 mg/kg ip, 5 min): 213.2 ± 20.8; Rate (normotensive rats; 10 mg/kg ip, 5 min): 347.3 ± 25.2; PR (normotensive rats; 10 mg/kg ip, 5 min): 53.0 ± 3.3; QRS (normotensive rats; 10 mg/kg ip, 5 min): 21.5 ± 1.4; QTc (normotensive rats; 10 mg/kg ip, 10 min): 214.4 ± 20.0; Rate (normotensive rats; 10 mg/kg ip, 10 min): 347.9 ± 29.2; PR (normotensive rats; 10 mg/kg ip, 10 min): 55.8 ± 2.0; QRS (normotensive rats; 10 mg/kg ip, 10 min): 23.2 ± 3.6; QTc (normotensive rats; 10 mg/kg ip, 15 min): 212.4 ± 12.3; Rate (normotensive rats; 10 mg/kg ip, 15 min): 345.0 ± 32.7; PR (normotensive rats; 10 mg/kg ip, 15 min): 54.9 ± 2.4; QRS (normotensive rats; 10 mg/kg ip, 15 min): 23.5 ± 2.6; QTc (normotensive rats; 10 mg/kg ip, 20 min): 216.7 ± 13.8; Rate (normotensive rats; 10 mg/kg ip, 20 min): 343.4 ± 33.6; PR (normotensive rats; 10 mg/kg ip, 20 min): 53.1 ± 4.4; QRS (normotensive rats; 10 mg/kg ip, 20 min): 23.6 ± 2.9; QTc (normotensive rats; 10 mg/kg ip, 30 min): 213.7 ± 19.0; Rate (normotensive rats; 10 mg/kg ip, 30 min): 338.5 ± 26.3; PR (normotensive rats; 10 mg/kg ip, 30 min): 52.2 ± 4.4; QRS (normotensive rats; 10 mg/kg ip, 30 min): 22.9 ± 1.6; QTc (normotensive rats; 10 mg/kg ip, 40 min): 221.4 ± 16.9; Rate (normotensive rats; 10 mg/kg ip, 40 min): 337.5 ± 25.0; PR (normotensive rats; 10 mg/kg ip, 40 min): 55.6 ± 2.6; QRS (normotensive rats; 10 mg/kg ip, 40 min): 24.5 ± 1.8; QTc (normotensive rats; 10 mg/kg ip, 50 min): 218.8 ± 11.8; Rate (normotensive rats; 10 mg/kg ip, 50 min): 342.2 ± 25.8; PR (normotensive rats; 10 mg/kg ip, 50 min): 53.6 ± 4.4; QRS (normotensive rats; 10 mg/kg ip, 50 min): 23.9 ± 2.5; QTc (normotensive rats; 10 mg/kg ip, 60 min): 217.4 ± 22.0; Rate (normotensive rats; 10 mg/kg ip, 60 min): 344.5 ± 28.9; PR (normotensive rats; 10 mg/kg ip, 60 min): 54.7 ± 3.1; QRS (normotensive rats; 10 mg/kg ip, 60 min): 23.2 ± 1.9; QTc (normotensive rats; 10 mg/kg ip, 80 min): 218.3 ± 25.5; Rate (normotensive rats; 10 mg/kg ip, 80 min): 350.7 ± 28.1; PR (normotensive rats; 10 mg/kg ip, 80 min): 54.9 ± 4.2; QRS (normotensive rats; 10 mg/kg ip, 80 min): 22.0 ± 1.4; effect on PR (normotensive rats; 20 mg/kg): did not affect; effect on QRS (normotensive rats; 20 mg/kg): did not affect; QTc (normotensive rats; 20 mg/kg ip, 0 min): 198.4 ± 6.1; Rate (normotensive rats; 20 mg/kg ip, 0 min): 317.4 ± 26.0; PR (normotensive rats; 20 mg/kg ip, 0 min): 53.1 ± 2.8; QRS (normotensive rats; 20 mg/kg ip, 0 min): 21.8 ± 1.7; QTc (normotensive rats; 20 mg/kg ip, 5 min): 190.9 ± 8.4; Rate (normotensive rats; 20 mg/kg ip, 5 min): 304.2 ± 32.0; PR (normotensive rats; 20 mg/kg ip, 5 min): 52.4 ± 3.4; QRS (normotensive rats; 20 mg/kg ip, 5 min): 20.9 ± 1.2; QTc (normotensive rats; 20 mg/kg ip, 10 min): 187.8 ± 14.7; Rate (normotensive rats; 20 mg/kg ip, 10 min): 278.4 ± 41.8; PR (normotensive rats; 20 mg/kg ip, 10 min): 55.3 ± 1.7; QRS (normotensive rats; 20 mg/kg ip, 10 min): 22.7 ± 3.4; QTc (normotensive rats; 20 mg/kg ip, 15 min): 179.4 ± 16.4; Rate (normotensive rats; 20 mg/kg ip, 15 min): 256.2 ± 52.1; PR (normotensive rats; 20 mg/kg ip, 15 min): 54.2 ± 2.1; QRS (normotensive rats; 20 mg/kg ip, 15 min): 22.8 ± 2.2; QTc (normotensive rats; 20 mg/kg ip, 20 min): 178.9 ± 21.9; Rate (normotensive rats; 20 mg/kg ip, 20 min): 249.9 ± 53.5; PR (normotensive rats; 20 mg/kg ip, 20 min): 52.1 ± 4.2; QRS (normotensive rats; 20 mg/kg ip, 20 min): 22.7 ± 2.5; QTc (normotensive rats; 20 mg/kg ip, 30 min): 178 ± 21.6 ms; Rate (normotensive rats; 20 mg/kg ip, 30 min): 246.5 ± 55.6; PR (normotensive rats; 20 mg/kg ip, 30 min): 51.3 ± 4.4; QRS (normotensive rats; 20 mg/kg ip, 30 min): 22.0 ± 1.5; QTc (normotensive rats; 20 mg/kg ip, 40 min): 175.7 ± 20.5; Rate (normotensive rats; 20 mg/kg ip, 40 min): 242.1 ± 53.5; PR (normotensive rats; 20 mg/kg ip, 40 min): 54.6 ± 2.4; QRS (normotensive rats; 20 mg/kg ip, 40 min): 23.6 ± 1.5; QTc (normotensive rats; 20 mg/kg ip, 50 min): 179.3 ± 20.7; Rate (normotensive rats; 20 mg/kg ip, 50 min): 239.2 ± 55.4; PR (normotensive rats; 20 mg/kg ip, 50 min): 52.5 ± 4.6; QRS (normotensive rats; 20 mg/kg ip, 50 min): 22.9 ± 2.3; Rate (normotensive rats; 20 mg/kg ip, 60 min): 239.5 ± 56.6; PR (normotensive rats; 20 mg/kg ip, 60 min): 53.7 ± 3.0; QRS (normotensive rats; 20 mg/kg ip, 60 min): 22.1 ± 1.7; QTc (normotensive rats; 20 mg/kg ip, 80 min): 173.0 ± 6.6; Rate (normotensive rats; 20 mg/kg ip, 80 min): 241.0 ± 64.1; PR (normotensive rats; 20 mg/kg ip, 80 min): 53.8 ± 4.1; QRS (normotensive rats; 20 mg/kg ip, 80 min): 21.0 ± 1.3; decrease of heart rate (normotensive rats; 20 mg/kg, 10 min after administration): 12.3%; decrease of heart rate (normotensive rats; 20 mg/kg, 15 min after administration): 19.3%; decrease of QTc (normotensive rats; 20 mg/kg, 15 min post injection): 9.6%; decrease of heart rate (normotensive rats; 20 mg/kg, 20 min after administration): 21.3%; decrease of QTc (normotensive rats; 20 mg/kg, 20 min post injection): 9.8%; decrease of heart rate (normotensive rats; 20 mg/kg, 30 min after administration): 22.3%; decrease of QTc (normotensive rats; 20 mg/kg, 30 min post injection): 10.5%; decrease of heart rate (normotensive rats; 20 mg/kg, 40 min after administration): 23.7%; decrease of QTc (normotensive rats; 20 mg/kg, 40 min post injection): 11.4%; decrease of heart rate (normotensive rats; 20 mg/kg, 50 min after administration): 24.6%; decrease of QTc (normotensive rats; 20 mg/kg, 50 min post injection): 9.6%; decrease of heart rate (normotensive rats; 20 mg/kg, 60 min after administration): 24.5%; decrease of QTc (normotensive rats; 20 mg/kg, 60 min post injection): 8.3%; decrease of heart rate (normotensive rats; 20 mg/kg, 80 min after administration): 24.1%; decrease of QTc (normotensive rats; 20 mg/kg, 80 min post injection): 12.8%; properties at 5-HT1A receptors (5-HT1A receptors): antagonistic properties
